From patent publication EP0655457A1, “MORANOLINE DERIVATIVE” (NIPPON SHINYAKU COMPANY, LIMITED, priority 1992, dated 1994)

System: ELAM-1 dependent adhesion of cultured human leukemia HL60 cells
Assay: Binding of HL60 cells to IL-1β-activated human vascular endothelial cells (cell adhesion count)
Type: cell-based
Conditions: for Cell adhesion count (%): % of control (HL60 bound to IL-1β-activated HUVEC = 100%); for Cell adhesion count: adhered HL60 cells on HUVEC activated with IL-1β 10U/ml
Description: The effect of the synthetic sugar on the binding of activated human vascular endothelial cells and cultured human leukemia HL60 cells
Cultured human vascular endothelial cells were separated from the human umbilical vein by collagenase treatment and cultured in a culture flask coated with 1% gelatin or fibronectin at a concentration of 0.02 mg/cm². The growth medium used was prepared by adding 15% fetal calf serum (FCS), 45 mg/l ECGS, 90 mg/l heparin and 40 mg/l gentamicin to medium 199. The proliferation of the cultured human leukemia cell line HL60 was maintained using 10% FCS-containing RPMI-1640. Both cells were cultured in a CO₂ incubator (5% CO₂, 95% air) at 37°C.
The cultured human umbilical vein endothelial cells (HUVEC) were seeded on a 96-well microtiter plate which had been precoated with 0.1% gelatin and were incubated until the growth became confluent. After the cells were washed with 10% FCS-containing Dulbecco's modified Eagle's medium (DMEM), 100 µl of 10% FCS-DMEM containing recombinant human interleukin-1β (IL-1β) was added. The cells were then cultured in a CO₂ incubator at 37°C for 4 hours (activation). The HL60 cells were washed twice with serum-free DMEM, suspended in 0.5% glutaldehyde-containing Hanks' solution and fixed on wet ice for 30 minutes.
The fixed cells were washed twice with serum-free DMEM to remove the fixative. Then, 10% FCS-containing DMEM was added to the cells so as to provide a suspension of 2x10⁶ cells/ml, which was then preserved on wet ice till use.
The HUVEC activated above was washed with 10% FCS-containing DMEM and 50µl of 10% FCS-DMEM containing either anti-ELAM-1 antibody (BBA 2, British Biotechnology Ltd., Abinton) or the test substance was added followed by incubation at room temperature for 30 minutes. The fixed HL60 cells were added in 50 µl aliquots and the incubation was further continued at room temperature for 45 minutes.
After the unbound HL60 cells were washed off, the center of each well was photographed and the number of adhered cells in the photographing field was counted. With the number of HL60 cells bound to the IL-1β-activated HUVEC being taken as 100%, the effect of addition of the test substance was evaluated.

[1] = concentration of 500 µg/ml, referring to Table 2
[2] = concentration of 100 µg/ml, referring to Table 1

Compound | Cell adhesion count (%) (Table 2, 50 µg/ml, n=6) | Cell adhesion count (Table 2, 50 µg/ml, n=6) | Cell adhesion count (%) (Table 2, 500 µg/ml, n=6) | Cell adhesion count (Table 2, 500 µg/ml, n=6) | inhibit the adhesion of HL60 cells to activated HUVEC [1] [%] | Cell adhesion count (%) (Table 1, 100 µg/ml, n=5) | Cell adhesion count (Table 1, 100 µg/ml, n=5) | inhibit the adhesion of HL60 cells to activated HUVEC [2] [%]
6-O-(5-acetamido-3,5-dideoxy-D-glycero-α-D-galacto-2-nonulopyranosylono-1',5-N-lactam)-1,5-dideoxy-1,5-imino-D-galactitol [Example (10)] | 93.4 | 494.7 | 82.5 | 436.2 | 17.5 |  |  | 
CC(=O)N1C(=O)C2(OCC3NCC(O)C(O)C3O)CC(O)C1C(C(O)C(O)CO)O2 [Example (8), 6-O-(5-acetamido-3,5-dideoxy-D-glycero-α-D-galacto-2-nonulopyranosylono-1',5-N-lactam)-1,5-dideoxy-1,5-imino-D-glucitol] | 89.6 | 473.7 | 81.1 | 428.5 | 18.9 |  |  | 
CC(=O)N[C@H]1[C@H]([C@H](O)[C@H](O)CO)O[C@@](OC[C@@H]2[C@@H](O)[C@H](O)[C@@H](O)CN2C)(C(=O)O)C[C@@H]1O [Example (9), O-(5-acetamido-3,5-dideoxy-D-glycero-α-D-galacto-2-nonulopyranosylonic acid)-(2→6)-1,5-dideoxy-N-methyl-1,5-imino-D-glucitol] |  |  |  |  |  | 49.1 | 188.4 | 50.9
CC(=O)N[C@H]1[C@H]([C@H](O)[C@H](O)CO)O[C@@](OC[C@@H]2[C@H](O)[C@H](O)[C@@H](O)CN2C)(C(=O)O)C[C@@H]1O [Example (11), O-(5-acetamido-3,5-dideoxy-D-glycero-α-D-galacto-2-nonulopyranosylonic acid)-(2→6)-1,5-dideoxy-N-methyl-1,5-imino-D-galactitol] |  |  |  |  |  | 40.4 | 155.0 | 59.6
